Reference: patent US4672036A, “Pure cultures of Kibdelsporangium aridum Shearer gen. nov., sp. nov. ATCC 39323 and mutants thereof” (SmithKline Beckman Corporation, priority 1985, dated 1987)
Converted amounts (≈) assume the structure as drawn. “And” between values parts separate entries of the source, which are not always exact repeats. Identical values can stand only once. Like-named read-outs stand apart in the source and are kept apart here.

Legend:
[1] = system: Staph. epidermidis SK & F 2683; format: cell-based; details: Staphylococcus epidermidis
[2] = system: Staph. aureus SK & F 2592; format: cell-based; details: Staphylococcus aureus
[3] = system: Staph. aureus SK & F 2682; format: cell-based; details: Staphylococcus aureus
[4] = system: Strep. faecalis SK & F 657; format: cell-based; details: Enterococcus faecalis
[5] = system: Staph. aureus SK & F 2620; format: cell-based; details: Staphylococcus aureus
[6] = system: Staph. aureus SK & F 2612; format: cell-based; details: Staphylococcus aureus
[7] = system: Staph. aureus SK & F 2596; format: cell-based; details: Staphylococcus aureus
[8] = system: B. fragilis SK & F 3060; format: cell-based, Bacteroides fragilis; details: Bacteroides fragilis
[9] = system: Staph. aureus SK & F 2615; format: cell-based; details: Staphylococcus aureus
[10] = system: Staph. aureus 209P-Mutant; assay: microbe, parasite or virus in culture; format: cell-based; details: Staphylococcus aureus, 209P
[11] = system: Staph. aureus SK & F 2614; format: cell-based; details: Staphylococcus aureus
[12] = system: Staph. aureus SK & F 2594; format: cell-based; details: Staphylococcus aureus
[13] = system: Pseudomonas aeruginosa HH63; format: cell-based; details: Pseudomonas aeruginosa, HH63
[14] = system: Staph. aureus SK & F 2591; format: cell-based; details: Staphylococcus aureus
[15] = system: Staph. aureus 209P; format: cell-based; details: Staphylococcus aureus
[16] = system: Proteus mirabilis SK & F 444; format: cell-based; details: Proteus mirabilis
[17] = system: Staph. aureus SK & F 2680; format: cell-based; details: Staphylococcus aureus
[18] = system: Staph. aureus HH 127; assay: animal or person; details: Staphylococcus aureus, HH127, in Mus musculus
[19] = system: Staph. aureus SK & F 2776; format: cell-based; details: Staphylococcus aureus
[20] = system: Staph. aureus SK & F 910; format: cell-based; details: Staphylococcus aureus
[21] = system: Staph. aureus SK & F 2777; format: cell-based; details: Staphylococcus aureus
[22] = system: Staph. aureus SK & F 2621; format: cell-based; details: Staphylococcus aureus
[23] = system: Strep. faecilis HH34358; format: cell-based
[24] = system: Staph. aureus SK & F 674; format: cell-based
[25] = system: Staph. epidermidis SK & F 651; format: cell-based; details: Staphylococcus epidermidis
[26] = system: K. aridum; assay: susceptibility of K. aridum to antibiotics, disk diffusion method; format: cell-based, Kibdelosporangium aridum; details: disk 30 μg
Method: Susceptibility of K. aridum to antibiotics was examined by placing BBL susceptibility disks on nutrient agar plates seeded with K. aridum as an overlay. Diameters of the zones of inhibition were measured after incubation for one week at 28° C.
Chlortetracycline ([…]) produced 18 mm zones of inhibition; tetracycline (5 μg) 11-12 mm zones; rifampin (5 μg) 11-15 mm zones; novobiocin (5 μg) 27-28 mm zones. All zones of inhibition contained at least a few resistant colonies.

[27] = system: Staph. aureus SK & F 2666; format: cell-based; details: Staphylococcus aureus
[28] = system: Swine in vitro model; assay: swine in vitro model (growth promotant activity)
[29] = system: Providencia SK & F 276; format: cell-based; details: Providencia
[30] = system: Staph. aureus SK & F 2677; format: cell-based; details: Staphylococcus aureus
[31] = system: rumen in vitro model; assay: rumen in vitro model (growth promotant activity); set-up: species or system steer
[32] = system: Staph. epidermidis SK & F 2479; format: cell-based; details: Staphylococcus epidermidis
[33] = system: E. coli 12140 (SK & F 809); format: cell-based; details: Escherichia coli
[34] = system: Staph. aureus SK & F 2595; format: cell-based; details: Staphylococcus aureus
[35] = system: Staph. aureus SK & F 674-P6 Mutant; assay: microbe, parasite or virus in culture; format: cell-based; details: Staphylococcus aureus
[36] = system: Clostridium perfringens MCP-1; assay: microbe, parasite or virus in culture; details: MCP1
[37] = system: C. perfringens ATCC 19408; assay: microbe, parasite or virus in culture; details: Clostridium perfringens, ATCC19408
[38] = system: Staph. aureus SK & F 2593; format: cell-based; details: Staphylococcus aureus
[39] = system: Staph. aureus SK & F 2597; format: cell-based; details: Staphylococcus aureus
[40] = system: Serratia marcesens ATCC 13880; format: cell-based; details: Serratia, ATCC13880
[41] = system: Staph. aureus SK & F 1761; format: cell-based; details: Staphylococcus aureus
[42] = system: Staph. aureus SK & F 2589; format: cell-based; details: Staphylococcus aureus

Q: For `CN[C@H](CC(C)C)C(=O)N[C@H]1C(=O)N[C@@H](CC(N)=O)C(=O)N[C@H]2C(=O)N[C@H]3C(=O)N[C@H](C(=O)N[C@H](C(=O)O)c4cc(O)cc(O)c4-c4cc3ccc4O)[C@H](O)c3ccc(c(Cl)c3)Oc3cc2cc(c3O[C@@H]2O[C@H](CO)[C@@H](O)[C@H](O)[C@H]2O[C@H]2C[C@](C)(N)[C@H](O)[C@H](C)O2)Oc2ccc(cc2Cl)[C@H]1O` [Vancomycin, reference compound], which MIC [1] is on record?
A: 6.3 µg/mL (≈ 4.35 µM)

Q: And the MIC [2]?
A: 3.1 µg/mL (≈ 2.14 µM)

Q: And the MIC [3]?
A: 1.6 µg/mL (≈ 1.1 µM)

Q: What about the MIC [4] of the same molecule?
A: 3.1 µg/mL (≈ 2.14 µM)

Q: And the MIC [5]?
A: 3.1 µg/mL (≈ 2.14 µM)

Q: And the MIC [6]?
A: 1.6 µg/mL (≈ 1.1 µM)

Q: And the MIC [7]?
A: 3.1 µg/mL (≈ 2.14 µM)

Q: And the MIC [8]?
A: 32 µg/mL (≈ 22.1 µM)

Q: What about the MIC [9] of the same molecule?
A: 3.1 µg/mL (≈ 2.14 µM)

Q: What about the MIC [10] of the same molecule?
A: > 100 µg/mL

Q: And the MIC [11]?
A: 1.6 µg/mL (≈ 1.1 µM)

Q: And the MIC [12]?
A: 1.6 µg/mL (≈ 1.1 µM)

Q: What about the MIC [13] of the same molecule?
A: > 100 µg/mL

Q: What about the MIC [14] of the same molecule?
A: 1.6 µg/mL (≈ 1.1 µM)

Q: And the MIC [15]?
A: 1.6 µg/mL (≈ 1.1 µM)

Q: And the MIC [16]?
A: 100 µg/mL (≈ 69 µM)

Q: What about the MIC [17] of the same molecule?
A: 1.6 µg/mL (≈ 1.1 µM)

Q: What about the ED50 [18] of the same molecule?
A: 1.76 mg/kg

Q: What about the MIC [19] of the same molecule?
A: 1.6 µg/mL (≈ 1.1 µM)

Q: What about the MIC ([20]; Table A) of the same molecule?
A: 1.6 µg/mL (≈ 1.1 µM)

Q: And the MIC ([20]; Table B, Methicillin Sensitive)?
A: 1.6 µg/mL (≈ 1.1 µM)

Q: What about the MIC ([20]; Table E) of the same molecule?
A: 3.1 µg/mL (≈ 2.14 µM)

Q: And the MIC [21]?
A: 0.8 µg/mL (≈ 0.552 µM)

Q: And the MIC [22]?
A: 1.6 µg/mL (≈ 1.1 µM)

Q: And the MIC [23]?
A: 3.1 µg/mL (≈ 2.14 µM)

Q: And the MIC ([23]; Enterococcus faecalis, HH34358)?
A: 6.3 µg/mL (≈ 4.35 µM)

Q: What about the MIC ([24]; Staphylococcus aureus) of the same molecule?
A: 1.6 µg/mL (≈ 1.1 µM)

Q: And the MIC ([24]; Table E)?
A: 1.6 µg/mL (≈ 1.1 µM)

Q: And the MIC ([25]; Table A)?
A: 1.6 µg/mL (≈ 1.1 µM)

Q: What about the MIC ([25]; Table E) of the same molecule?
A: 6.3 µg/mL (≈ 4.35 µM)

Q: What about the “susceptibility of K. aridum” value [26] of the same molecule?
A: resistant

Q: What about the MIC [27] of the same molecule?
A: 1.6 µg/mL (≈ 1.1 µM)

Q: And the “GLU (glucose)” value [28]?
A: 190 % Control and 189 % Control

Q: And the “LAC (L-lactic acid)” value [28]?
A: 64 % Control and 59 % Control

Q: What about the “LYS (lysine)” value [28] of the same molecule?
A: 48 % Control and 42 % Control and 83 % Control

Q: What about the MIC [29] of the same molecule?
A: > 100 µg/mL

Q: What about the MIC [30] of the same molecule?
A: 1.6 µg/mL (≈ 1.1 µM)

Q: And the “LYS (lysine)” value [31]?
A: 85 % Control and 83 % Control

Q: And the MIC ([32]; Table A)?
A: 1.6 µg/mL (≈ 1.1 µM)

Q: And the MIC ([32]; Table E)?
A: 6.3 µg/mL (≈ 4.35 µM)

Q: What about the MIC ([33]; Table A) of the same molecule?
A: 100 µg/mL (≈ 69 µM)

Q: And the MIC ([33]; Table E)?
A: > 100 µg/mL

Q: What about the MIC [34] of the same molecule?
A: ~1.6 µg/mL (≈ 1.1 µM)

Q: And the MIC [35]?
A: > 100 µg/mL

Q: What about the MIC [36] of the same molecule?
A: 0.5 µg/mL (≈ 0.345 µM)

Q: And the MIC [37]?
A: 1 µg/mL (≈ 0.69 µM)

Q: What about the MIC [38] of the same molecule?
A: 1.6 µg/mL (≈ 1.1 µM)

Q: And the MIC [39]?
A: 3.1 µg/mL (≈ 2.14 µM)

Q: And the MIC [40]?
A: > 100 µg/mL

Q: What about the MIC [41] of the same molecule?
A: 1.6 µg/mL (≈ 1.1 µM)

Q: And the MIC [42]?
A: 1.6 µg/mL (≈ 1.1 µM)
